Data on seven compounds can be found in paper PMC9573605, “Exploring Nitric Oxide (NO)-Releasing Celecoxib Derivatives as Modulators of Radioresponse in Pheochromocytoma Cells” (Molecules, 2022).

The target in one assay is T1, purified ovine COX-1 (Ovis aries, UniProt P05979).
T1 construct: purchased Cayman Chemical 700100
T1 sequence (P05979 25-600): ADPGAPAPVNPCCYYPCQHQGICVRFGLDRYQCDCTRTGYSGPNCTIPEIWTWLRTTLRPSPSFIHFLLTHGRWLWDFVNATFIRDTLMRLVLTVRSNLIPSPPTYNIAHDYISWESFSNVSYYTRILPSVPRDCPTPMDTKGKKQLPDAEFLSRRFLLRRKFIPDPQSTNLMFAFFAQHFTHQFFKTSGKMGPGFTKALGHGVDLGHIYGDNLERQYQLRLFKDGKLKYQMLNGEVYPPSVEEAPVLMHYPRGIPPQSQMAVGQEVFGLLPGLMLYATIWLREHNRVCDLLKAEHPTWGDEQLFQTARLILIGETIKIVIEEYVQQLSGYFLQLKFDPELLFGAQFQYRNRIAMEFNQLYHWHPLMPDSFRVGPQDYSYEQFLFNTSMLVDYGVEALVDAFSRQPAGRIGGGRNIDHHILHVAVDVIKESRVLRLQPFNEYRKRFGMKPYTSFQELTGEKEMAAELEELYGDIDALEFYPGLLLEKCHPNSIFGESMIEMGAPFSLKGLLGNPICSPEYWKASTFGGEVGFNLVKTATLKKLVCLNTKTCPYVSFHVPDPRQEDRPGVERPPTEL
Put plainly: COX Fluorescent Inhibitor Screening Assay, COX-1. It is filed as biochemical. As to the method: COX inhibition (Table 1) was evaluated in vitro using purified ovine COX-1 and recombinant human COX-2 enzyme in a commercially available “COX Fluorescent Inhibitor Screening Assay KIT” (item no. 700100, Cayman Chemical, Ann Arbor, MI, USA). Celecoxib served as a reference and inhibition data concerning 4a, 4e, 5a and 5e were previously reported by us and is herein discussed for comparison.
COX inhibition activity against ovine COX-1 and human COX-2 was determined using the fluorescence-based COX assay “COX Fluorescent Inhibitor Screening Assay Kit” (catalog number 700100; Cayman Chemical, Ann Arbor, MI, USA) according to the manufacturer’s instructions. Compounds 6a–d were screened at a concentration of 100 µM, all others were assayed in a concentration range of 0.1 nM to 100 μM in duplicate.

The test system of assay [1] is MPC-HIF2α tumor spheroids. Put plainly: Spheroid regrowth assay with external X-ray irradiation. It is filed as cell-based, mouse. Conditions: X-ray 15 Gy; 10 µM compound added 2 h post irradiation; controls 83%. As for the experimental part:
(§1) As a first pilot study, growth responses of MPC-HIF2α spheroids were investigated after two different radiation treatments such as single-dose external beam irradiation (X-ray) and incubation with [^177Lu]LuCl3, respectively. NO-COXIBs were tested at 10 µM for additional effects on radiation treatments against a vehicle-treated control (w/o) and celecoxib (Ce).
The log2-fold change in spheroid diameter is given as a standardized parameter for spheroid growth, which is positive for growing, near zero for stagnating and negative for shrinking spheroids. Furthermore, regrowth probabilities are given as a parameter to compare how many of the overall studied spheroids in one group recovered within 14 days. Radioprotective effects occurred when compounds were added 2 h before irradiation. In this setup, all compounds accelerated the increase in spheroid size during the regrowth phase compared to controls (Figure 5A, upper panel). Regrowth probabilities of 67–100% under NO-COXIB treatment remained however similar to controls (83%). Radiosensitizing effects occurred when compounds were added 2 h post irradiation. In this setup, all compounds decelerated the increase in spheroid size during the regrowth phase compared to controls.
Genetically modified mouse pheochromocytoma (MPC) cells expressing a codon-optimized Epas1 gene (encoding HIF2α) were cultured as three-dimensional tumor spheroids as published elsewhere. External X-ray beam radiation treatment and [^177Lu]LuCl3 radionuclide treatment was performed as reported previously with some modifications. In brief, spheroids were irradiated with a 200 kV photon beam using a Maxishot X-ray system equipped with a Y.TU/320-D03 tube (YXLON, Hamburg, Germany), growth of spheroids (n = 6) with diameters between 300−400 µm was measured in response to one fixed radiation dose, 15 Gy for X-ray treatment, and 0.25 MBq/mL of [^177Lu]LuCl3 for radionuclide treatment corresponding to a cumulative dose of approximately 2 Gy delivered for 6 days. The applied radiation doses were selected based on the half-maximal spheroid control doses (SCD50) as previously determined for MPC HIF2α spheroids by us. Spheroids were considered as regrown at 100 µm increase in diameter compared to treatment start or at a diameter growth rate of 15 µm per day. Results are reported as spheroid regrowth probability (%).
Figure 5 Effects of NO-COXIBs on radiation treatments of MPC-HIF2α tumor spheroids. (A) Growth responses to X-ray treatment with a radiation dose of 15 Gy in combination with 10 µM NO-COXIBs added to the medium at indicated time points before or after irradiation. (B) Growth responses to [^177Lu]LuCl3 treatment with an initial activity concentration of 0.25 MBq/mL in combination with NO-COXIBs; log2 fold changes in diameter indicate the number of diameter doublings compared to treatment start; 14-day regrowth probability indicates the fraction of spheroids able to regrow within 14 days after treatment start; (black arrows) time point or duration of radiation treatment; (w/o) vehicle controls are shown as black lines; (Ce) celecoxib.

The next assay relates to MPC-HIF2a spheroids. Put plainly: Growth of non-irradiated tumor spheroids. The format is cell-based, mouse. Conditions: 10 µM compound, linear regression between 0 and 9 days. As for the experimental part:
as §1
4. Growth-rate of tumor spheroids in the presence of NO -COXIBS without radiation treatment
Compound Diameter growth rate
Table S2. Effects of NO-COXIBs on spheroid growth; diameter growth rates of non-irradiated MPC-HIF2a spheroids in presence of 10 µM of compounds determined from linear regression between 0 and 9 days after treatment start; (w/o) vehicle control treated with DMSO

[2] abbreviates: screened at a concentration of 100 µM.

As for `Cc1ccc(-c2c(Cl)c(CO[N+](=O)[O-])nn2-c2ccc(S(C)(=O)=O)cc2)cc1` [5c, {4-Chloro-1-[4-(methylsulfonyl)phenyl]-5-(p-tolyl)-1H-pyrazol-3-yl}methyl nitrate], the IC50 on purified ovine COX-1 (0.1 nM to 100 µM in duplicate) was over 100 µM. Besides, the 14-day regrowth probability in assay [1] is on record as 17%. Moreover, in the assay on MPC-HIF2a spheroids, the “Diameter growth rate ± SEM” value is on record as 60.4 ± 5.3 µm/day.
With `COc1ccc(-c2c(Cl)c(CO[N+](=O)[O-])nn2-c2ccc(S(C)(=O)=O)cc2)cc1` [5d, {4-Chloro-5-(4-methoxyphenyl)-1-[4-(methylsulfonyl)phenyl]-1H-pyrazol-3-yl}methyl nitrate], on purified ovine COX-1 (0.1 nM to 100 µM in duplicate), the IC50 is over 100 µM. In addition, in assay [1], the 14-day regrowth probability was 17%. Moreover, the “Diameter growth rate ± SEM” value in the assay with MPC-HIF2a spheroids is 61.2 ± 5.5 µm/day.
On purified ovine COX-1 (0.1 nM to 100 µM in duplicate), `COc1ccc(-c2cc(CO[N+](=O)[O-])nn2-c2ccc(S(N)(=O)=O)cc2)cc1` [5f, [5-(4-Methoxyphenyl)-1-(4-sulfamoylphenyl)-1H-pyrazol-3-yl]methyl nitrate] yielded an IC50 of over 100 µM. In addition, the 14-day regrowth probability in assay [1] is listed as 17%. The “Diameter growth rate ± SEM” value in the assay on MPC-HIF2a spheroids came out at 61.4 ± 5.2 µm/day.
In turn, `CCC(=O)NS(=O)(=O)c1ccc(-n2nc(CO[N+](=O)[O-])c(Cl)c2-c2ccc(C)cc2)cc1` [6a, {4-Chloro-1-[4-(N-propionylsulfamoyl)phenyl]-5-(p-tolyl)-1H-pyrazol-3-yl}methyl nitrate] had an IC50 on purified ovine COX-1 (setting [2]) of over 100 µM. Further, in assay [1], the 14-day regrowth probability is 33–40%. Besides, the “Diameter growth rate ± SEM” value in the assay on MPC-HIF2a spheroids is on record as 64.1 ± 6.1 µm/day.
In turn, `CCC(=O)NS(=O)(=O)c1ccc(-n2nc(CO[N+](=O)[O-])c(Cl)c2-c2ccc(OC)cc2)cc1` [6b, {4-Chloro-5-(4-methoxyphenyl)-1-[4-(N-propionylsulfamoyl)phenyl]-1H-pyrazol-3-yl}methyl nitrate] registered an IC50 at purified ovine COX-1 (setting [2]) of about 100 µM. Moreover, in assay [1], the 14-day regrowth probability came to 0%. In the assay with MPC-HIF2a spheroids, the “Diameter growth rate ± SEM” value is listed as 63.1 ± 5.3 µm/day.
Taken in the same sequence, the figures for `CCC(=O)NS(=O)(=O)c1ccc(-n2nc(CO[N+](=O)[O-])cc2-c2ccc(C)cc2)cc1` [6c, {1-[4-(N-Propionylsulfamoyl)phenyl]-5-(p-tolyl)-1H-pyrazol-3-yl}methyl nitrate] were over 100 µM, 33–40% and 60.0 ± 5.5 µm/day.
For `CCC(=O)NS(=O)(=O)c1ccc(-n2nc(CO[N+](=O)[O-])cc2-c2ccc(OC)cc2)cc1` [6d, {5-(4-Methoxyphenyl)-1-[4-(N-propionylsulfamoyl)phenyl]-1H-pyrazol-3-yl}methyl nitrate] the same measures were over 100 µM, 33–40% and 63.7 ± 5.9 µm/day.

The term IC50 denotes the point on the concentration scale where inhibition reaches its midpoint. A higher IC50 goes with weaker potency in that assay.
